pEC50, pIC50: −log10 of the molar value. The source made the active and inactive calls. The rule behind the calls is not given here.
Assays:
Type in all cases: cell-based
[1] = target: T1, Atypical chemokine receptor 3 (Homo sapiens, UniProt P25106); assay: Activation of YFP-tagged ACKR3 (unknown origin) expressed in HEK293E cells assessed as induction of Rluc-tagged beta-arrestin-2 recruitment after 30 mins by BRET assay
[2] = target: C-X-C chemokine receptor type 4 (Homo sapiens, UniProt P61073); assay: Displacement of [125I]SDF-1alpha from CXCR4 (unknown origin) expressed in HEK293 cells after 1 hr by scintillation counting method
[3] = target: Atypical chemokine receptor 3 (Homo sapiens, UniProt P25106, D179N); assay: Activation of YFP-tagged ACKR3 D179N mutant (unknown origin) expressed in HEK293E cells assessed as induction of Rluc-tagged beta-arrestin-2 recruitment after 30 mins by BRET assay; conditions: for pEC50: read-out: EC50; for EC50: read-out: pEC50 (converted)
[4] = target: T1, Atypical chemokine receptor 3; assay: Displacement of [125I]SDF-1alpha from ACKR3 (unknown origin) expressed in CHO cells after 1 hr by scintillation counting method
[5] = target: Atypical chemokine receptor 3 (Homo sapiens, UniProt P25106, S198R); assay: Activation of YFP-tagged ACKR3 S198R mutant (unknown origin) expressed in HEK293E cells assessed as induction of Rluc-tagged beta-arrestin-2 recruitment after 30 mins by BRET assay; conditions: for pEC50: read-out: EC50
[6] = target: Atypical chemokine receptor 3 (Homo sapiens, UniProt P25106, D275N); assay: Activation of YFP-tagged ACKR3 D275N mutant (unknown origin) expressed in HEK293E cells assessed as induction of Rluc-tagged beta-arrestin-2 recruitment after 30 mins by BRET assay; conditions: for pEC50: read-out: EC50
[7] = target: T1, Atypical chemokine receptor 3; assay: Displacement of [125I]SDF-1alpha from ACKR3 (unknown origin) expressed in CHO cells at 30 uM after 1 hr by scintillation counting method

Sequence of Atypical chemokine receptor 3 (Homo sapiens, UniProt P25106, D275N) (P25106 whole entry D275N): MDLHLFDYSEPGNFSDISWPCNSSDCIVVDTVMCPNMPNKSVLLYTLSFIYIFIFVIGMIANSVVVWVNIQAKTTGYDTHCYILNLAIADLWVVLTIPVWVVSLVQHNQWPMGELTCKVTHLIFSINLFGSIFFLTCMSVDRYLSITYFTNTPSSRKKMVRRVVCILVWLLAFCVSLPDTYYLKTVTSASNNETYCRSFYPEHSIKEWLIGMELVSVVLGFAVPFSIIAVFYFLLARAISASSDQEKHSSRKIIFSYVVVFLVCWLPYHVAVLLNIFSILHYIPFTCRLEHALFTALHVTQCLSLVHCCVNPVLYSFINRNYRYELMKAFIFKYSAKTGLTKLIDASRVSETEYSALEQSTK
Sequence of Atypical chemokine receptor 3 (Homo sapiens, UniProt P25106, S198R) (P25106 whole entry S198R): as the sequence (P25106 whole entry D275N) above, with S198R, N275D counted along it
T1 sequence (P25106 whole entry): as the sequence (P25106 whole entry D275N) above, with N275D counted along it
Sequence of Atypical chemokine receptor 3 (Homo sapiens, UniProt P25106, D179N) (P25106 whole entry D179N): as the sequence (P25106 whole entry D275N) above, with D179N, N275D counted along it
Sequence of C-X-C chemokine receptor type 4 (P61073 whole entry): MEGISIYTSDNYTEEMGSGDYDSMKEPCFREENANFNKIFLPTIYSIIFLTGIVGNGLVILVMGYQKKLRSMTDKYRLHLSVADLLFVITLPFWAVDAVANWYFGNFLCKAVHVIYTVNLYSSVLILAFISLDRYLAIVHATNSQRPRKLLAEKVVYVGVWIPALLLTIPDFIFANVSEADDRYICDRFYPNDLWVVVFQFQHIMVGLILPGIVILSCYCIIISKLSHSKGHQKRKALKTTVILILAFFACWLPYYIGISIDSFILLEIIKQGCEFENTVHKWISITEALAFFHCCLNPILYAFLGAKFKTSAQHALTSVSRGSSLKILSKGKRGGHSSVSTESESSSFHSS

pIC50 [2] | pIC50 [4] | SMILES | other results
4.77 | 6.77 | CN1C(=O)[C@H](CCCNC(=N)N)NC(=O)[C@@H](Cc2ccc(O)cc2)NC(=O)[C@H](Cc2cccc3ccccc23)N(C)C(=O)[C@H](Cc2ccc3ccccc3c2)NC(=O)[C@@H]1CCCNC(N)=O | pEC50 [1]: 6.31; pEC50 [3]: 6.96; EC50 [3]: 126 nM; pEC50 [5]: 5.72; pEC50 [6]: 5.26; EC50 ([6]; read-out: pEC50 (converted)): 6310 nM
< 4.52 | – | CN1C(=O)[C@H](CC(N)=O)NC(=O)[C@@H](Cc2ccc(O)cc2)NC(=O)[C@@H]2CCCN2C(=O)[C@H](Cc2ccc3ccccc3c2)NC(=O)[C@@H]1CCCNC(=N)N | inhibition [7]: inactive
< 4.52 | – | CN1C(=O)[C@H](CCCNC(=N)N)NC(=O)[C@@H](Cc2ccc(O)cc2)NC(=O)[C@@H]2CCCN2C(=O)[C@H](Cc2ccc3ccccc3c2)NC(=O)[C@@H]1CCC(=O)O | inhibition [7]: inactive
< 4.52 | – | CN1C(=O)[C@H](CC(=O)O)NC(=O)[C@@H](Cc2ccc(O)cc2)NC(=O)[C@@H]2CCCN2C(=O)[C@H](Cc2ccc3ccccc3c2)NC(=O)[C@@H]1CCCNC(=N)N | inhibition [7]: inactive
< 4.52 | – | CN1C(=O)[C@H](CCC(=O)O)NC(=O)[C@@H](Cc2ccc(O)cc2)NC(=O)[C@@H]2CCCN2C(=O)[C@H](Cc2ccc3ccccc3c2)NC(=O)[C@@H]1CCCNC(=N)N | inhibition [7]: inactive
< 4.52 | 5.82 | CN1C(=O)[C@H](CCCNC(=N)N)NC(=O)[C@@H](Cc2ccc(O)cc2)NC(=O)[C@@H]2CCCN2C(=O)[C@H](Cc2ccc3ccccc3c2)NC(=O)[C@@H]1CCNC(=N)N | –
< 4.52 | 6.72 | CN1C(=O)[C@H](CCCNC(=N)N)NC(=O)[C@@H](Cc2ccc(O)cc2)NC(=O)[C@@H]2Cc3ccccc3N2C(=O)[C@H](Cc2ccc3ccccc3c2)NC(=O)[C@@H]1CCCNC(N)=O | –
< 4.52 | 5.70 | CN1C(=O)[C@H](CCCNC(=N)N)NC(=O)[C@@H](Cc2ccc([N+](=O)[O-])cc2)NC(=O)[C@@H]2CCCN2C(=O)[C@H](Cc2ccc3ccccc3c2)NC(=O)[C@@H]1CCCNC(N)=O | –
< 4.52 | 5.68 | CN1C(=O)[C@H](CCCNC(=N)N)NC(=O)[C@@H](Cc2ccc(O)cc2)NC(=O)[C@@H]2Cc3[nH]c4ccccc4c3CN2C(=O)[C@H](Cc2ccc3ccccc3c2)NC(=O)[C@@H]1CCCNC(N)=O | –
< 4.52 | 6.14 | CN1C(=O)[C@H](CCCNC(=N)N)NC(=O)[C@@H](Cc2ccc(C(=O)c3ccccc3)cc2)NC(=O)[C@@H]2CCCN2C(=O)[C@H](Cc2ccc3ccccc3c2)NC(=O)[C@@H]1CCCNC(N)=O | –
< 4.52 | 4.62 to 5.70 | CN1C(=O)[C@H](Cc2ccccc2)NC(=O)[C@@H](Cc2ccc(O)cc2)NC(=O)[C@@H]2CCCN2C(=O)[C@H](Cc2ccc3ccccc3c2)NC(=O)[C@@H]1CCCNC(=N)N | –
< 4.52 | 5.39 | CN1C(=O)[C@H](CCCNC(=N)N)NC(=O)[C@@H](Cc2ccc(O)cc2)NC(=O)[C@@H]2CCCN2C(=O)[C@H](Cc2ccc3ccccc3c2)NC(=O)[C@@H]1CC(N)=O | –
< 4.52 | 6.16 | CN1C(=O)[C@H](CCCNC(=N)N)NC(=O)[C@@H](Cc2ccc3ccccc3c2)NC(=O)[C@@H]2CCCN2C(=O)[C@H](Cc2ccc3ccccc3c2)NC(=O)[C@@H]1CCCNC(N)=O | –
< 4.52 | 5.89 | CN1C(=O)[C@H](CCCNC(=N)N)NC(=O)[C@@H](Cc2ccc(O)cc2)NC(=O)[C@@H]2CCCN2C(=O)[C@H](Cc2ccc3ccccc3c2)NC(=O)[C@@H]1CCCN | –
< 4.52 | 6.07 | CN1C(=O)[C@H](CCCNC(=N)N)NC(=O)[C@@H](Cc2ccc(O)cc2)NC(=O)[C@@H]2CCCN2C(=O)[C@H](Cc2ccc3ccccc3c2)NC(=O)[C@@H]1CCCNC(=N)N | pEC50 [1]: 7.04; pEC50 [3]: 5.66; EC50 [3]: 2510 nM; pEC50 [5]: 6.57; EC50 ([5]; read-out: pEC50 (converted)): 316 nM; pEC50 [6]: 6.44
< 4.52 | 4.62 to 5.70 | CC(C)C[C@@H]1NC(=O)[C@@H](Cc2ccc(O)cc2)NC(=O)[C@@H]2CCCN2C(=O)[C@H](Cc2ccc3ccccc3c2)NC(=O)[C@H](CCCNC(=N)N)N(C)C1=O | –
< 4.52 | – | CN1C(=O)[C@H](CCCNC(=N)N)NC(=O)[C@@H](Cc2ccc(O)cc2)NC(=O)[C@@H]2CCCN2C(=O)[C@H](Cc2ccc3ccccc3c2)NC(=O)[C@@H]1CC(=O)O | inhibition [7]: inactive

Reference: ChEMBL document CHEMBL4043305, “Structure-Activity Relationship Study of Cyclic Pentapeptide Ligands for Atypical Chemokine Receptor 3 (ACKR3)” (J Med Chem, 2018)
